Test results: PubChem BioAssay AID256 (DTP/NCI, 2004)
Inconclusive results and toxic doses are left out. The calls were made as follows: active = survival T/C of 150% or more; inactive = T/C below 125% in these data.

Tested on: CD2F1 mice, L1210 leukemia ip, survival T/C
Experiment: NCI In Vivo Anticancer Drug Screen. Data for tumor model L1210 Leukemia (intraperitoneal) in CD2F1 (CDF1) mice
Conditions: higher = longer survival
In short: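 Activity against a transplanted murine tumor was judged by comparing the compound group with a vehicle group. The outcome in the treated animals was divided by that in the controls.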

[1] = endpoint: mean survival time, dose: 100.0 mg/kg/injection, schedule: Q01DX001 (ip), vehicle: saline
[2] = endpoint: mean survival time, dose: 100.0 mg/kg/injection, schedule: Q04DX003 (ip), vehicle: saline with Tween-80
[3] = endpoint: mean survival time, dose: 200.0 mg/kg/injection, schedule: Q04DX003 (ip), vehicle: saline with Tween-80
[4] = endpoint: mean survival time, dose: 400.0 mg/kg/injection, schedule: Q04DX003 (ip), vehicle: saline with Tween-80

Measured: T/C

COC1=C(OC)C(C(O)CO)OC1=O (stereo unspecified)
inactive: endpoint: mean survival time, dose: 25.0 mg/kg/injection, schedule: Q01DX009 (ip), vehicle: water 93 % of control | endpoint: mean survival time, dose: 50.0 mg/kg/injection, schedule: Q01DX009 (ip), vehicle: water 89 % of control | endpoint: mean survival time, dose: 100.0 mg/kg/injection, schedule: Q01DX009 (ip), vehicle: water 100 % of control | endpoint: mean survival time, dose: 200.0 mg/kg/injection, schedule: Q01DX009 (ip), vehicle: water 94 % of control | endpoint: mean survival time, dose: 400.0 mg/kg/injection, schedule: Q01DX009 (ip), vehicle: water 100 % of control

CCOC(=O)C(CC)(OC(C)=O)C(=O)C=O (stereo unspecified)
inactive: [1] 108 % of control | endpoint: mean survival time, dose: 200.0 mg/kg/injection, schedule: Q01DX001 (ip), vehicle: saline 112 % of control | endpoint: mean survival time, dose: 400.0 mg/kg/injection, schedule: Q01DX001 (ip), vehicle: saline 116 % of control

Nc1csc(N)n1
inactive: endpoint: mean survival time, dose: 37.5 mg/kg/injection, schedule: Q01DX009 (ip), vehicle: saline 98 % of control | endpoint: mean survival time, dose: 75.0 mg/kg/injection, schedule: Q01DX009 (ip), vehicle: saline 98 % of control | endpoint: mean survival time, dose: 150.0 mg/kg/injection, schedule: Q01DX009 (ip), vehicle: saline 98 % of control

CC1CCC(c2cc(-c3ccccc3)n(-c3ccccc3)n2)CC1 (stereo unspecified)
inactive: endpoint: mean survival time, dose: 100.0 mg/kg/injection, schedule: Q04DX003 (ip), vehicle: acetone 103 % of control | endpoint: mean survival time, dose: 200.0 mg/kg/injection, schedule: Q04DX003 (ip), vehicle: acetone 101 % of control | endpoint: mean survival time, dose: 400.0 mg/kg/injection, schedule: Q04DX003 (ip), vehicle: acetone 93 % of control

NC(=O)c1csc(C2OC(CO)CC2O)n1 (stereo unspecified)
inactive: endpoint: median survival time, dose: 37.5 mg/kg/injection, schedule: Q01DX005 (ip), vehicle: water 92 % of control | endpoint: median survival time, dose: 75.0 mg/kg/injection, schedule: Q01DX005 (ip), vehicle: water 107 % of control | endpoint: median survival time, dose: 125.0 mg/kg/injection, schedule: Q01DX005 (ip), vehicle: water 104 % of control | endpoint: median survival time, dose: 150.0 mg/kg/injection, schedule: Q01DX005 (ip), vehicle: water 102 % of control | endpoint: median survival time, dose: 250.0 mg/kg/injection, schedule: Q01DX005 (ip), vehicle: water 116 % of control | endpoint: median survival time, dose: 300.0 mg/kg/injection, schedule: Q01DX005 (ip), vehicle: water 109 % of control | endpoint: median survival time, dose: 500.0 mg/kg/injection, schedule: Q01DX005 (ip), vehicle: water 121 % of control

CN(/N=C/c1ccc([N+](=O)[O-])cc1)c1ccccc1
inactive: endpoint: mean survival time, dose: 100.0 mg/kg/injection, schedule: Q01DX001 (ip), vehicle: saline with Tween-80 100 % of control | endpoint: mean survival time, dose: 200.0 mg/kg/injection, schedule: Q01DX001 (ip), vehicle: saline with Tween-80 106 % of control | endpoint: mean survival time, dose: 400.0 mg/kg/injection, schedule: Q01DX001 (ip), vehicle: saline with Tween-80 91 % of control

COc1cccc(Cc2c[nH]c(=O)[nH]c2=O)c1
inactive: [2] 98 % of control | [3] 100 % of control | [4] 92 % of control

CN(Cc1ccc(C#N)cc1)N=Nc1ccc(C(=O)O)cc1
inactive: endpoint: mean survival time, dose: 25.0 mg/kg/injection, schedule: Q01DX009 (ip), vehicle: other 106 % of control | endpoint: mean survival time, dose: 50.0 mg/kg/injection, schedule: Q01DX009 (ip), vehicle: other 87 % of control | endpoint: mean survival time, dose: 100.0 mg/kg/injection, schedule: Q01DX009 (ip), vehicle: other 106 % of control | endpoint: mean survival time, dose: 200.0 mg/kg/injection, schedule: Q01DX009 (ip), vehicle: other 102 % of control | endpoint: mean survival time, dose: 400.0 mg/kg/injection, schedule: Q01DX009 (ip), vehicle: other 120 % of control

CN(N=O)C(=O)NC1C(CO)OC(n2ccc(=O)[nH]c2=O)C1O (stereo unspecified)
inactive: endpoint: mean survival time, dose: 13.0 mg/kg/injection, schedule: Q01DX001 (ip), vehicle: saline 105 % of control | endpoint: mean survival time, dose: 20.0 mg/kg/injection, schedule: Q01DX001 (ip), vehicle: saline 107 % of control | endpoint: mean survival time, dose: 30.0 mg/kg/injection, schedule: Q01DX001 (ip), vehicle: saline 110 % of control | endpoint: mean survival time, dose: 44.0 mg/kg/injection, schedule: Q01DX001 (ip), vehicle: saline 111 % of control | endpoint: mean survival time, dose: 67.0 mg/kg/injection, schedule: Q01DX001 (ip), vehicle: saline 107 % of control | [1] 122 % of control | endpoint: mean survival time, dose: 150.0 mg/kg/injection, schedule: Q01DX001 (ip), vehicle: saline 121 % of control

c1ccc(P(CCNCCP(c2ccccc2)c2ccccc2)c2ccccc2)cc1
inactive: endpoint: median survival time, dose: 25.0 mg/kg/injection, schedule: Q01DX009 (ip), vehicle: saline with Tween-80 101 % of control | endpoint: median survival time, dose: 50.0 mg/kg/injection, schedule: Q01DX009 (ip), vehicle: saline with Tween-80 103 % of control | endpoint: median survival time, dose: 100.0 mg/kg/injection, schedule: Q01DX009 (ip), vehicle: saline with Tween-80 103 % of control | endpoint: median survival time, dose: 200.0 mg/kg/injection, schedule: Q01DX009 (ip), vehicle: saline with Tween-80 101 % of control

O=C1Cc2ccccc2CO1
inactive: [2] 97 % of control | [3] 94 % of control | [4] 105 % of control
